The test system of this series is chymotrypsin. As to the kind of experiment: Phage ELISA after DTT reduction and chymotrypsin treatment (resistance to proteolysis). In kind it is in vitro ADME. Particulars: 5 mM DTT 20 min, chymotrypsin 50 ug/ml 2 min. Here is the method:
0.6 μg/mL of biotinylated MDM2 peptide (res 2-125) was immobilized on a streptavidin-coated plate (Roche). Plate was blocked with PBSM (but 4% in milk powder) and linear or TBMB-conjugated phage (10^7 TU/well in PBSM in the presence or absence of 5 mM DTT) was incubated on the plate for 50 min at room temperature. Similarly, phage was first reduced in 5 mM DTT for 20 min, treated with chymotrypsin (50 ug/ml in PBS) for 2 min, mixed with PBSM (final concentration) and incubated on the plate for 50 min at room temperature. Phage was detected using an anti-M13-HRP monoclonal antibody (1:5000, Amersham).
Note that 5 mM DTT can reduce the disulphide bonds of chymotrypsin leading to its inactivation as a protease. […] In other experiments we have used up to 0.2 mM-5 mM TCEP in the presence of chymotrypsin (0.1 mg/ml-1 mg/ml) for 2 minutes at room temperature in PBS. These conditions also allowed us to distinguish between the linear and cyclic peptides on phage.

SMILES strings stand for the structures. *1 amine or outer side, *2 acyl side, *3 side chain or, on linkers, in order; H or OH if unused. Where a SMILES comes first, the peptide text is derived from it. Bridges are numbered along the chain shown (N, C = ends). TBMB = c1c(C[*:1])cc(C[*:3])cc1C[*:2]

In the case of `CC(C)C[C@@H]1NC(=O)[C@H](CCC(=O)O)NC(=O)[C@@H](NC(=O)[C@@H](N)CO)CSCc2cc3cc(c2)CSC[C@H](NC(=O)[C@H](CCCCN)NC(=O)[C@@H]2CCCN2C(=O)[C@H](CC(N)=O)NC(=O)[C@H](Cc2c[nH]c4ccccc24)NC1=O)C(=O)N[C@@H](CCCNC(=N)N)C(=O)N[C@@H](CC(C)C)C(=O)N[C@@H](CO)C(=O)N1CCC[C@H]1C(=O)N[C@@H](Cc1ccccc1)C(=O)N[C@@H](CCC(=O)O)C(=O)N[C@H](C(=O)N[C@@H](CCCCN)C(=O)NCC(=O)O)CSC3` [PEP10] (H-SCELWNPKCRLSPFECKG-OH; linker 2-9-16 via TBMB (inferred)), the “resistance of MDM2 binding to proteolysis” value is recorded as “resistant to proteolysis”.
With `CC(C)[C@@H]1NC(=O)[C@@H](NC(=O)[C@@H](N)CO)CSCc2cc3cc(c2)CSC[C@H](NC(=O)[C@H]([C@@H](C)O)NC(=O)[C@H](Cc2c[nH]c4ccccc24)NC(=O)CNC(=O)[C@H](Cc2ccccc2)NC(=O)[C@H](CCCNC(=N)N)NC1=O)C(=O)N[C@@H](CC(=O)O)C(=O)N[C@@H](CC(N)=O)C(=O)N[C@@H](CO)C(=O)N[C@@H](Cc1c[nH]c2ccccc12)C(=O)N[C@@H](Cc1c[nH]cn1)C(=O)NCC(=O)N[C@H](C(=O)N[C@@H](CCCCN)C(=O)NCC(=O)O)CSC3` [PEP48] (H-SCVRFGWTCDNSWHGCKG-OH; linker 2-9-16 via TBMB (inferred)) the entry was “resistant to proteolysis”.
